Results taken from US11851419B2, “GLP-1R modulating compounds” (Gilead Sciences, Inc., priority 2020, dated 2023).
pEC50: −log10 of the molar value.

Key:
[1] = molecular target: T1, GLP-1R (Homo sapiens, UniProt P43220); assay: GLP-1R Activation - cAMP Assay 1 (cAMP increase in CHO cells stably expressing GLP-1R); format: cell-based; conditions: 10 point dose response, 30 minutes incubation at 37° C., cAMP Gs Dynamic Kit
Experimental: GLP-1R Activation—cAMP Assay 1
GLP-1R activation by a compound of the present disclosure was quantified by measuring cAMP increase in CHO cells stably expressing GLP-1R (MultiSpan product #C1267-1a). The cells were harvested and plated in growth medium (DMEM/F-12 (Corning product #10-090-CV) supplemented with 10% FBS (HyClone product #SH30071-03), penicillin/streptomycin (Corning product #30-002CI) and 10 µg/ml puromycin (Gibco product #A11138-03)) at 1,000 cells/well in a 384-well plate (Greiner product #781080). The cells were then incubated overnight at 37° C., 5% CO2. The next day, the medium was removed and the cells were washed with DPBS (Corning product #21-031-CM) before adding the assay medium (HBSS, Corning product #21-023-CV) with 20 mM Hepes (Gibco product #15630-080) and 0. 1% BSA (Rockland Immunochemicals product #BSA-1000)). Following the medium change, the cells were incubated for 1 hour at 37° C., 5% CO2. The tested GLP-1 compound was added to the cells in a 10 point dose response followed by a 30 minutes incubation at 37° C., 5% CO2. cAMP concentration increase was then detected using Cisbio's cAMP Gs Dynamic Kit (product #62AM4PEC) according to the manufacturer's protocol. The response was plotted against the log of the agonist concentration and fitted to a sigmoidal equation to determine the EC50.

[2] = molecular target: T1, GLP-1R; assay: GLP-1R Activation - cAMP Assay 2 (cAMP increase in CHO cells stably expressing GLP-1R, pre-spotted agonists); format: cell-based; conditions: assay buffer or 100% Human Plasma (not given), 30 minutes at 37° C.
Experimental: GLP-1R Activation—cAMP Assay 2
GLP-1R activation by small molecule agonists is quantified by measuring cAMP increase in CHO cells stably expressing GLP-1R (MultiSpan product #C1267-1a). 50 nL of agonists are pre-spotted in a 10 point dose response onto 384-well plate (Corning product #CL3826) using the Labcyte Echo System. The cells are harvested and plated in assay buffer (HBSS (Corning product #21-023-CV) with 20 mM Hepes (Gibco product #15630-080) and 0.1% BSA (Rockland Immunochemicals product #BSA-1000)) or 100% Human Plasma (Innovative Research product #50-643-396) at 1,000 cells/well, 10 µL/well, onto the pre-spotted plates. The cells are then incubated for 30 minutes at 37° C., 5% CO2. cAMP concentration increase is then detected using Cisbio's cAMP Gs Dynamic Kit (product #62AM4PEC) according to the manufacturer's protocol. The response is plotted against the log of the agonist concentration and fitted to a sigmoidal equation to determine the EC50.

T1 sequence (P43220 24-463): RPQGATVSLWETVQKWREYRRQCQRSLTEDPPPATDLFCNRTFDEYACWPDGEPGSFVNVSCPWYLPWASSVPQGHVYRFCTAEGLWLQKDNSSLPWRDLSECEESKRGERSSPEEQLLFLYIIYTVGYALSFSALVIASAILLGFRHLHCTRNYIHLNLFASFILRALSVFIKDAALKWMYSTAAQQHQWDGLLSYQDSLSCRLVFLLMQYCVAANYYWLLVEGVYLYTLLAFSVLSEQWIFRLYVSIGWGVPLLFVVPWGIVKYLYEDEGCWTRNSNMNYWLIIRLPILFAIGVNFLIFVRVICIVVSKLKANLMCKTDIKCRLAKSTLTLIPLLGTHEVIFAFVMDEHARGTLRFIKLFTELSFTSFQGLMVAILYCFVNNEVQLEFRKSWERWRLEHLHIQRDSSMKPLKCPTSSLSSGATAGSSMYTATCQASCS

Row | Compound | pEC50 [1] | pEC50 [2]
1 | COCCn1c(C2CC23CCN(c2cccc(OCc4ccc(C#N)cc4F)n2)CC3)nc2c(F)cc(C(=O)O)cc21 (stereo not drawn) [Example 7, 2-[6-[6-[(4-cyano-2-fluoro-phenyl)methoxy]-2-pyridyl]-6-azaspiro[2.5]octan-2-yl]-7-fluoro-3-(2-methoxyethyl)benzimidazole-5-carboxylic Acid] | 8.42 | 7.99
2 | COCCn1c(CC2CCN(c3cccc(OCc4ccc(C#N)cc4F)n3)CC2)nc2c(F)cc(C(=O)O)cc21 [Example 8] | 8.28 | 7.88
3 | COCCn1c(CN2CCC(c3cccc(OCc4ccc(C#N)cc4F)n3)CC2)nc2c(Cl)cc(C(=O)O)cc21 [Example 9] | 8.18 | 8.59
4 | COCCn1c(CN2CCC(c3cccc(OCc4ccc(C#N)cc4F)n3)CC2)nc2c(F)c(F)c(C(=O)O)cc21 [Example 10, 2-((4-(6-((4-cyano-2-fluorobenzyl)oxy)pyridin-2-yl)piperidin-1-yl)methyl)-4,5-difluoro-1-(2-methoxyethyl)-1H-benzo[d]imidazole-6-carboxylic Acid] | 7.74 | 7.95
5 | COCCn1c(CN2CCC(c3cccc(OCc4ccc(C#N)cc4F)n3)CC2)nc2c(C#N)cc(C(=O)O)cc21 [Example 25, 4-cyano-2-((4-(6-((4-cyano-2-fluorobenzyl)oxy)pyridin-2-yl)piperidin-1-yl)methyl)-1-(2-methoxyethyl)-1H-benzo[d]imidazole-6-carboxylic Acid] | 8.46 | 8.15
6 | COCCn1c(CN2CCC(c3cccc(OCc4ccc(C#N)cc4F)n3)CC2)nc2c(C3CC3)cc(C(=O)O)cc21 [Example 26, 2-((4-(6-((4-cyano-2-fluorobenzyl)oxy)pyridin-2-yl)piperidin-1-yl)methyl)-4-cyclopropyl-1-(2-methoxyethyl)-1H-benzo[d]imidazole-6-carboxylic Acid] | 7.27 | 7.32
7 | COCCn1c(CN2CCC(c3cccc(OCc4ccc(C#N)cc4F)n3)CC2)nc2c(COC)cc(C(=O)O)cc21 [Example 27, 2-((4-(6-((4-cyano-2-fluorobenzyl)oxy)pyridin-2-yl)piperidin-1-yl)methyl)-1-(2-methoxyethyl)-4-(methoxymethyl)-1H-benzo[d]imidazole-6-carboxylic Acid] | 7.84 | 
8 | COCCn1c(CN2CCC(c3cccc(OCc4ccc(C#N)cc4F)n3)CC2)nc2c(C)cc(C(=O)O)cc21 [Example 28, 2-((4-(6-((4-cyano-2-fluorobenzyl)oxy)pyridin-2-yl)piperidin-1-yl)methyl)-1-(2-methoxyethyl)-4-methyl-1H-benzo[d]imidazole-6-carboxylic Acid] | 7.68 | 
9 | COCCn1c(CN2CCC(c3cccc(OCc4ccc(C#N)cc4F)n3)CC2)nc2c(-c3cnn(C)c3)cc(C(=O)O)cc21 [Example 29, 2-((4-(6-((4-cyano-2-fluorobenzyl)oxy)pyridin-2-yl)piperidin-1-yl)methyl)-1-(2-methoxyethyl)-4-(1-methyl-1H-pyrazol-4-yl)-1H-benzo[d]imidazole-6-carboxylic Acid] | 6.98 | 
